Measurements published in BindingDB's records for doi:10.1021/jm00350a005 (1982).

Tests used:
[1] = biological target: 5-hydroxytryptamine receptor 1A/1B/1D/1E/1F/2A/2B/2C/3A/3B/3C/3D/3E/4/5A/6/7; assay: Ability to displace [3H]5-HT binding from 5-hydroxytryptamine receptor site using 1 uM LSD as masking ligand
[2] = biological target: 5-hydroxytryptamine receptor 1A/1B/1D/1E/1F/2A/2B/2C/3A/3B/3C/3D/3E/4/5A/6/7; assay: Ability to displace [3H]5-HT binding to 5-hydroxytryptamine receptor using 1 uM LSD as masking ligand, activity is expressed as Kd.
[3] = biological target: 5-hydroxytryptamine receptor 1A/1B/1D/1E/1F/2A/2B/2C/3A/3B/3C/3D/3E/4/5A/6/7; assay: Ability to displace [3H]5-HT binding to 5-hydroxytryptamine receptor site using 1 uM LSD as masking ligand, […].
[4] = biological target: 5-hydroxytryptamine receptor 1A/1B/1D/1E/1F/2A/2B/2C/3A/3B/3C/3D/3E/4/5A/6/7; assay: Ability to displace [3H]5-HT binding to 5-hydroxytryptamine receptor site using 1 uM LSD as masking ligand

SMILES: CC(C)N(CCc1c[nH]c2cc3c(cc12)OCO3)C(C)C
- IC50 [1]: 933 µM

SMILES: CSc1ccc2[nH]cc(CCN(C)C)c2c1
- Kd [2]: 0.043 µM

SMILES: CN(C)CCc1c[nH]c2cc3c(cc12)OCO3
- Kd [3]: 8.4 µM

SMILES: CSc1cccc2[nH]cc(CCN(C)C)c12
- IC50 [4]: 151 µM
- Kd [3]: 8.4 µM
